Each structure is given as a SMILES string.

In one experiment the target is ACL (Homo sapiens (Human), UniProt P53396). Put plainly: ADP-Glo Assay.
Chain of ACL (P53396 other isoform, or with tags, fused parts or gaps isoform P53396-2): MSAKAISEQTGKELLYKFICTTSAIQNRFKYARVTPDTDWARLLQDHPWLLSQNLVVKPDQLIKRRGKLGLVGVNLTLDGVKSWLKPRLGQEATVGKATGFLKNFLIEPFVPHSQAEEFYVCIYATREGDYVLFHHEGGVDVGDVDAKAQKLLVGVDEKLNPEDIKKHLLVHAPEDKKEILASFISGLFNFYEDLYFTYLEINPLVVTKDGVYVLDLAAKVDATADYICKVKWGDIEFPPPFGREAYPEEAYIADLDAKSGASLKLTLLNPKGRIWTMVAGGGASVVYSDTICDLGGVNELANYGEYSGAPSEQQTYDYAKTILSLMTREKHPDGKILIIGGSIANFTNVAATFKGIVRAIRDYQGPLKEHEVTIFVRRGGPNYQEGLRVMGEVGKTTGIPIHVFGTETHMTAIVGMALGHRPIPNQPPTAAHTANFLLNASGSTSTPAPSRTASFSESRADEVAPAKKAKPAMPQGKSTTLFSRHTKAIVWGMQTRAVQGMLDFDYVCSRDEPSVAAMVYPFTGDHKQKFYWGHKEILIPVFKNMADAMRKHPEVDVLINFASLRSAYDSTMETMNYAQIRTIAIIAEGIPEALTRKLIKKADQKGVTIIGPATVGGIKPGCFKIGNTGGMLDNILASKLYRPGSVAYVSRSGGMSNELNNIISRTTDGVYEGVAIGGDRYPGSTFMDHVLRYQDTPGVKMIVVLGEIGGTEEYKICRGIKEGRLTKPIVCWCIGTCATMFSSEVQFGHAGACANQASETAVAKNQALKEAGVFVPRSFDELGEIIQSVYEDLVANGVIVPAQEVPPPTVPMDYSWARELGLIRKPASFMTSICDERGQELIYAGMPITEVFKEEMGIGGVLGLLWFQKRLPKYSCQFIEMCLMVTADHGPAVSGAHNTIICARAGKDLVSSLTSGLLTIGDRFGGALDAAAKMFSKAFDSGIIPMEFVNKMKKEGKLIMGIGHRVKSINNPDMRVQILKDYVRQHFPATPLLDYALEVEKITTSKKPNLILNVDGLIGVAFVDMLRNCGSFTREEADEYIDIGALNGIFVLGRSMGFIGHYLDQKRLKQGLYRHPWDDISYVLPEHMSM
Settings: not given
(In general: In ADP-Glo the light output rises with the ADP produced.)
For the compound `CC(C)(C)OC(=O)COc1ccc(-c2ccccc2)cc1NS(=O)(=O)c1cc(Cl)cc(Cl)c1O` [I-214, tert-butyl 2-[[3-(3,5-dichloro-2-hydroxybenzenesulfonamido)-[1,1-biphenyl]-4-yl]oxy]acetate], the IC50 (in general, the point on the concentration scale where inhibition reaches its midpoint) fell in the range of 0.5 to 20 µM.

Take `O=C(c1cc(Cl)c(O)c(NS(=O)(=O)c2cc(-c3ccccc3)ccc2F)c1)N1CCC1` [I-215, N-[5-(azetidine-1-carbonyl)-3-chloro-2-hydroxyphenyl]-4-fluoro-[1,1-biphenyl]-3-sulfonamide]: the IC50 was 0.5 to 20 µM.

Turning to `O=C(Nc1cc(C(=O)N2CCC2)cc(Cl)c1O)c1cc(-c2ccccc2)ccc1F` [I-216, N-(5-(azetidine-1-carbonyl)-3-chloro-2-hydroxyphenyl)-4-fluoro-[1,1′-biphenyl]-3-carboxamide], the IC50 is 0.5 to 20 µM.

Turning to `O=C(Oc1c(Cl)cc(C(=O)N2CCC2)cc1S(=O)(=O)N(C(=O)C1CC1)c1cc(-c2ccccc2)c(F)cc1F)C1CC1` [I-217, 4-(azetidine-1-carbonyl)-2-chloro-6-[(1-cyclopropyl-N-[4,6-difluoro-[1,1-biphenyl]-3-yl]formamido)sulfonyl]phenylcyclopropanecarboxylate], the IC50 was 0.5 to 20 µM.

For the compound `N#Cc1cc(Cl)cc(S(=O)(=O)Nc2cc(-c3ccccc3)ccc2O)c1` [I-218, 3-chloro-5-cyano-N-[4-hydroxy-[1,1-biphenyl]-3-yl]benzene-1-sulfonamide], the IC50 lay within 0.5 to 20 µM.

`O=S(=O)(Nc1ccc(F)cc1F)c1cc(Cl)cc(Cl)c1O` [I-219, 3,5-dichloro-N-(2,4-difluorophenyl)-2-hydroxybenzene-1-sulfonamide] gave an IC50 of 0.5 to 20 µM.

Compound `O=S(=O)(Nc1cc(-c2ccccc2)ccc1F)c1cc(Cl)cc2ccoc12` [I-223, 5-chloro-N-[4-fluoro-[1,1-biphenyl]-3-yl]-1-benzofuran-7-sulfonamide] had an IC50 of 0.5 to 20 µM.

The compound `O=S(=O)(Nc1cc(-c2ccccc2)ccc1O)c1cc(Cl)cc(Cl)c1` [I-224, 3,5-dichloro-N-(4-hydroxy-[1,1′-biphenyl]-3-yl)benzenesulfonamide] yielded a 50% inhibitory concentration (IC50) of 0.5 to 20 µM.

In the case of `O=C(O)c1ccc(-c2ccccc2)cc1NS(=O)(=O)c1ccccc1` [I-225, 3-(phenylsulfonamido)-[1,1′-biphenyl]-4-carboxylic Acid], the IC50 lay in the range of 0.5 to 20 µM.

Turning to `O=C(O)c1ccc(-c2ccccc2)cc1NS(=O)(=O)c1cc(Cl)cc(C(=O)N2CCC2)c1` [I-227, 3-((3-(azetidine-1-carbonyl)-5-chlorophenyl)sulfonamido)-[1,1′-biphenyl]-4-carboxylic Acid], the IC50 lay within 0.5 to 20 µM.

Compound `O=S(=O)(Nc1cc(-c2ccccc2)c(F)cc1F)c1ccccc1O` [I-230, N-[4,6-difluoro-[1,1-biphenyl]-3-yl]-2-hydroxybenzene-1-sulfonamide] registered an IC50 of 0.5 to 20 µM.

Compound `CN(C)C(=O)c1cc(Cl)c(O)c(S(=O)(=O)Nc2cc(C3CC3)c(F)cc2F)c1` [I-231, 3-chloro-5-(N-(5-cyclopropyl-2,4-difluorophenyl)sulfamoyl)-4-hydroxy-N,N-dimethylbenzamide] registered an IC50 of 0.5 to 20 µM.

For `O=C(O)c1ccc(-c2ccccc2)cc1NS(=O)(=O)c1cc(Cl)cc(-c2nccs2)c1` [I-234, 3-((3-chloro-5-(thiazol-2-yl)phenyl)sulfonamido)-[1,1′-biphenyl]-4-carboxylic Acid], the IC50 lay within 0.5 to 20 µM.

In the case of `O=C(O)COc1ccc(-c2ccccc2)cc1NS(=O)(=O)c1cc(F)cc(Cl)c1` [I-238, 2-((3-((3-chloro-5-fluorophenyl)sulfonamido)-[1,1′-biphenyl]-4-yl)oxy)acetic Acid], the IC50 fell in the range of 0.5 to 20 µM.

`O=C(O)COc1ccc(-c2ccccc2)cc1NS(=O)(=O)c1cc(Cl)cc(Cl)c1` [I-244, 2-[[3-(3,5-dichlorobenzenesulfonamido)-[1,1-biphenyl]-4-yl]oxy]acetic Acid] had an IC50 of 0.5 to 20 µM.

Take `NC(=O)Cc1ccc(-c2ccccc2)cc1NS(=O)(=O)c1cc(Cl)cc(Cl)c1` [I-245, 2-(3-((3,5-dichlorophenyl)sulfonamido)-[1,1′-biphenyl]-4-yl)acetamide]: the IC50 lay in the range of 0.5 to 20 µM.

The compound `O=S(=O)(Nc1cc(-c2ccccc2)c(F)cc1F)c1cc(Cl)cc(Br)c1` [I-246, 3-bromo-5-chloro-N-(4,6-difluoro-[1,1′-biphenyl]-3-yl)benzenesulfonamide] gave an IC50 of 0.5 to 20 µM.

The compound `O=C(O)c1ccc(-c2ccccc2)cc1NS(=O)(=O)c1cncc(Cl)c1` [I-247, 3-((5-chloropyridine)-3-sulfonamido)-[1,1′-biphenyl]-4-carboxylic Acid] yielded an IC50 of 0.5 to 20 µM.

As to `COC(=O)c1ncccc1S(=O)(=O)Nc1cc(-c2ccccc2)ccc1F` [I-250], the IC50 lay within 0.5 to 20 µM.

Turning to `N#Cc1cc(S(=O)(=O)Nc2cc(-c3ccccc3)ccc2F)ccc1Cl` [I-251], the IC50 lay within 0.5 to 20 µM.

In the case of `O=S(=O)(Nc1cc(-c2ccccc2)ccc1F)c1ccc(Cl)c(-c2nnn[nH]2)c1` [I-252], the IC50 lay in the range of 0.5 to 20 µM.

In turn, `O=c1[nH]c2cc(F)c(S(=O)(=O)Nc3cc(-c4ccccc4)ccc3F)cc2o1` [I-253] showed an IC50 of 0.5 to 20 µM.

With `CCS(=O)(=O)Nc1cc(OC)ccc1S(=O)(=O)Nc1cc(-c2ccccc2)ccc1F` [I-254], the IC50 is 0.5 to 20 µM.

Consider `O=C1COc2cc(S(=O)(=O)Nc3cc(-c4ccccc4)ccc3F)c(Cl)cc2N1` [I-255], for which the IC50 was 0.5 to 20 µM.

The compound `O=C(O)c1cc(Cl)c(Cl)c(S(=O)(=O)Nc2cc(-c3ccccc3)ccc2F)c1` [I-256] yielded an IC50 of 0.5 to 20 µM.

With `O=C(O)c1ccc(-c2ccccc2)cc1NS(=O)(=O)Cc1ccccc1` [I-257], the IC50 was in the range of 0.5 to 20 µM.

For `O=C(O)c1ccc(-c2ccccc2)cc1NS(=O)(=O)c1ccc2[nH]c(=O)[nH]c2c1` [I-258], the IC50 lay within 0.5 to 20 µM.

Regarding `O=C(O)c1ccc(-c2ccccc2)cc1NS(=O)(=O)CCc1ccccc1` [I-259], the IC50 was in the range of 0.5 to 20 µM.

Regarding `COc1ccc(-c2ccccc2)cc1NS(=O)(=O)c1cc(Cl)cc(Cl)c1NS(C)(=O)=O` [I-263, 3,5-dichloro-2-methanesulfonamido-N-[4-methoxy-[1,1-biphenyl]-3-yl]benzene-1-sulfonamide], the IC50 fell in the range of 0.5 to 20 µM.

For `CC(C)(C)OC(=O)COc1ccc(-c2ccccc2)cc1NS(=O)(=O)c1cc(C(F)(F)F)cc(Cl)c1O` [I-265, tert-butyl 2-([3-[3-chloro-2-hydroxy-5-(trifluoromethyl)benzenesulfonamido]-[1,1-biphenyl]-4-yl]oxy)acetate], the IC50 fell in the range of 0.5 to 20 µM.

`O=C(O)c1ccc(-c2ccccc2)cc1NCc1cc(Cl)cc(Cl)c1` [I-267, 3-((3,5-dichlorobenzyl)amino)-[1,1′-biphenyl]-4-carboxylic Acid] yielded an IC50 of 0.5 to 20 µM.

In the case of `O=C(c1cc(Cl)c(O)c(S(=O)(=O)Nc2ccccc2F)c1)N1CCC1` [I-268, 5-(azetidine-1-carbonyl)-3-chloro-N-(2-fluorophenyl)-2-hydroxybenzene-1-sulfonamide], the IC50 lay within 0.5 to 20 µM.

The experiment is the same for the next values; noted with them: read-out: ACL-ADP-Glo (IC50); 3 nM ACL, 15 μM ATP, 3 μM CoA, 300 μM Citrate.
Take `O=C(O)Cc1ccc(-c2ccccc2)cc1NS(=O)(=O)c1cc(Cl)cc(Cl)c1` [I-228, 2-(3-((3,5-dichlorophenyl)sulfonamido)-[1,1′-biphenyl]-4-yl)acetic Acid]: the IC50 was in the range of 0.5 to 20 µM.

Consider `O=C(c1cc(Cl)c(O)c(S(=O)(=O)Nc2cc(-c3ccccc3)ccn2)c1)N1CCC1` [I-237], for which the IC50 is 0.5 to 20 µM.

The values are drawn from patent US11555012B2 (Nimbus Artemis, Inc., priority 2018, dated 2023).
